Data set [1] can be described thus: Toxicity in mouse B16-4A5 cells assessed as inhibition of cell proliferation at 30 uM in presence of 1 mM theophylline after 72 hrs by WST8 dye reduction assay. In kind it is cell-based.
Data set [2] is described as follows: cells. Particulars: Mus musculus, B16-4A5, 72 h, read-out: INH.
Description: Inhibition of theophylline-stimulated melanogenesis in mouse B16-4A5 cells at 30 uM after 72 hrs
The nature of data set [3]: cells. Particulars: Mus musculus, B16-4A5, 72 h, read-out: INH. The source holds these as a separate data set.
Description: Inhibition of theophylline-stimulated melanogenesis in mouse B16-4A5 cells at 1 uM after 72 hrs
Data set [4] is described as follows: cells. The settings on record: Mus musculus, B16-4A5, 72 h, read-out: INH. The source holds these as a separate data set.
Description: Inhibition of theophylline-stimulated melanogenesis in mouse B16-4A5 cells at 10 uM after 72 hrs
Data set [5] can be described thus: cells. Particulars: Mus musculus, B16-4A5, 72 h, read-out: INH. This is another data set of the same source.
Description: Inhibition of theophylline-stimulated melanogenesis in mouse B16-4A5 cells at 3 uM after 72 hrs
The target in data set [6] is T1, Tyrosinase (Agaricus bisporus) (UniProt O42713).
T1 sequence (whole entry): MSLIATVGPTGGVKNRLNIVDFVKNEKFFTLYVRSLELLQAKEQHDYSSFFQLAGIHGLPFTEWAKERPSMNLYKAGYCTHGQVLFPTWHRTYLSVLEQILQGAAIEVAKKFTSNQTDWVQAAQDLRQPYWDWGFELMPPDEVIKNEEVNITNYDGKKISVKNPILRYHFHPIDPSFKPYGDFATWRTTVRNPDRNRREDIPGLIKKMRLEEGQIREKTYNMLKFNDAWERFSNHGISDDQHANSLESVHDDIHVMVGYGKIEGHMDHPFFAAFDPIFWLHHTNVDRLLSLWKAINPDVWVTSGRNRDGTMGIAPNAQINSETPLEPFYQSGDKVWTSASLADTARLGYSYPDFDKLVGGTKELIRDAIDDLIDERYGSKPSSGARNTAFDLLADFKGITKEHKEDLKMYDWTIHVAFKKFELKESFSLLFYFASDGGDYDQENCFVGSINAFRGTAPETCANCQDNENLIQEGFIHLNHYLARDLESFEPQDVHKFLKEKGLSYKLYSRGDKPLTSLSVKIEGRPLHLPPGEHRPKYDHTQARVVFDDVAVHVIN
Briefly: Inhibition of mushroom tyrosinase assessed as inhibition of melanin production from dopachrome by autoxidation at 100 uM.

The source made the active and inactive calls. No cut-off for these calls is given here.

For the compound `COc1cc(C(=O)C(O)CO)ccc1O` (single isomer, unassigned; (+)), the inhibition at 72 h, 30 µM in data set [1] is less than 8.8%. In “cells [2]”, the inhibition at 30 µM worked out at 25.8%. Also, in “cells [3]”, the inhibition at 1 µM stood at 16.5%. Further, the inhibition at 10 µM in “cells [4]” was determined as 24%. In addition, the inhibition at 3 µM in the data set “cells [5]” came to 18.1%.

With `C[C@@H]1O[C@@H](OC[C@H]2O[C@@H](Oc3c(-c4ccc(O)c(O)c4)oc4cc(O)cc(O)c4c3=O)[C@H](O)[C@@H](O)[C@@H]2O)[C@H](O)[C@H](O)[C@H]1O` [RUTIN], the inhibition at 72 h, 30 µM in data set [1] was less than 8.8%. Moreover, in “cells [2]”, the inhibition at 30 µM was 5.2%. The inhibition at 1 µM in the data set “cells [3]” stood at 4.5%. For the same compound, the inhibition at 10 µM in “cells [4]” turned out to be 4.3%. Also, the inhibition at 3 µM in the data set “cells [5]” amounted to 3.1%.

For `O=C1C[C@@H](c2ccc(O)cc2)Oc2cc(O)cc(O)c21` [NARINGENIN], in data set [1], the inhibition at 72 h, 30 µM is less than 8.8%. Moreover, the inhibition at 30 µM in the data set “cells [2]” worked out at 16.9%. The inhibition at 1 µM in the data set “cells [3]” came to 14.4%. Also, the inhibition at 10 µM in “cells [4]” was 22.5%. Further, in “cells [5]”, the inhibition at 3 µM was 13.9%.

Turning to `COc1ccc([C@@H]2Oc3c(O)cc(/C=C/C=O)cc3[C@H]2CO)cc1OC`, the inhibition entry in data set [6] is “inactive”. The inhibition at 72 h, 30 µM in data set [1] is less than 8.8%. In addition, the inhibition at 30 µM in the data set “cells [2]” came out at 76.8%. For the same compound, in the data set “cells [3]”, the inhibition at 1 µM was 10.7%. Moreover, the inhibition at 10 µM in the data set “cells [4]” was found to be 33.6%. The inhibition at 3 µM in “cells [5]” was determined as 8.4%.

For the compound `O=C1c2c(O)cc(O)cc2O[C@@H](c2ccc(O)c(O)c2)[C@H]1O` [(+)-EPITAXIFOLIN], the inhibition at 72 h, 30 µM in data set [1] is less than 8.8%. The inhibition at 30 µM in “cells [2]” was 13.7%. The inhibition at 1 µM in the data set “cells [3]” was found to be 3.5%. Further, the inhibition at 10 µM in “cells [4]” worked out at 6.9%. In addition, the inhibition at 3 µM in the data set “cells [5]” amounted to 6.8%.

Turning to `COc1cc([C@H]2Oc3c(O)cc([C@H]4Oc5cc(O)cc(O)c5C(=O)[C@@H]4O)cc3[C@@H]2CO)ccc1O` [SILICRISTIN B], the inhibition at 72 h, 30 µM in data set [1] was less than 8.8%. For the same compound, in “cells [2]”, the inhibition at 30 µM came to 1.2%. Also, the inhibition at 1 µM in the data set “cells [3]” is 4.2%. Moreover, the inhibition at 10 µM in the data set “cells [4]” was determined as 1.6%. The inhibition at 3 µM in the data set “cells [5]” was -1.3%.

Regarding `COc1cc([C@@H]2Oc3c(O)cc(C=O)cc3[C@H]2CO)ccc1O` [HIEROCHIN C], in data set [1], the inhibition at 72 h, 30 µM was less than 8.8%. For the same compound, the inhibition at 30 µM in the data set “cells [2]” came to 44.6%. Besides, the inhibition at 1 µM in the data set “cells [3]” was -1%. Further, the inhibition at 10 µM in the data set “cells [4]” is 27.6%. In addition, in the data set “cells [5]”, the inhibition at 3 µM is 6.6%.

For `COc1cc([C@H]2Oc3cc(O)cc(O)c3C(=O)[C@@H]2O)ccc1O`, in data set [1], the inhibition at 72 h, 30 µM is less than 8.8%. For the same compound, in the data set “cells [2]”, the inhibition at 30 µM is 16.2%. The inhibition at 1 µM in the data set “cells [3]” came to 9.8%. Also, the inhibition at 10 µM in the data set “cells [4]” amounted to 10.6%. In addition, the inhibition at 3 µM in “cells [5]” came out at 8%.

Take `O=C1c2c(O)cc(O)cc2O[C@H](c2ccc(O)cc2)[C@H]1O` [DIHYDROKAEMPFEROL]: the inhibition at 72 h, 30 µM in data set [1] was less than 8.8%. Also, the inhibition at 30 µM in “cells [2]” worked out at 7%. Further, the inhibition at 1 µM in “cells [3]” was found to be 6%. For the same compound, the inhibition at 10 µM in “cells [4]” is -5.2%. Further, in the data set “cells [5]”, the inhibition at 3 µM came out at 14.4%.

For `COc1ccc(C(=O)O)cc1` [p-ANISIC ACID], the inhibition at 72 h, 30 µM in data set [1] was less than 8.8%. In addition, in “cells [2]”, the inhibition at 30 µM is less than 15.4%.

`COc1cc(C=O)ccc1O` [VANILLIN]: the inhibition at 72 h, 30 µM in data set [1] was less than 8.8%. Also, the inhibition at 30 µM in “cells [2]” was less than 15.4%.

Take `O=C(O)c1ccc(O)c(O)c1` [PROTOCATECHUIC ACID]: in data set [1], the inhibition at 72 h, 30 µM was less than 8.8%. Further, the inhibition at 30 µM in the data set “cells [2]” is less than 15.4%.

`COc1cc([C@@H](O)[C@@H](CO)c2ccc(O)c(OC)c2)ccc1O` (relative stereo): in data set [1], the inhibition at 72 h, 30 µM was less than 8.8%. In “cells [2]”, the inhibition at 30 µM was determined as 27.3%. Besides, the inhibition at 1 µM in “cells [3]” was 14.9%. Further, the inhibition at 10 µM in the data set “cells [4]” came out at 21.3%. In addition, the inhibition at 3 µM in “cells [5]” was 20.8%.

As to `COc1cc(C(O)C(CO)Oc2ccc(/C=C/CO)cc2OC)ccc1O` (stereo unspecified), in data set [6], the inhibition entry was “inactive”. Moreover, the inhibition at 72 h, 30 µM in data set [1] is less than 8.8%. In addition, in “cells [2]”, the inhibition at 30 µM was 52.9%. Moreover, the inhibition at 1 µM in “cells [3]” was 8.8%. Also, the inhibition at 10 µM in the data set “cells [4]” stood at 24.5%. The inhibition at 3 µM in the data set “cells [5]” worked out at 11.7%.

Regarding `O=C1c2c(O)cc(O)cc2O[C@H](c2ccc(O)c(O)c2)[C@H]1O` [(+)-TAXIFOLIN], the inhibition at 72 h, 30 µM in data set [1] is less than 8.8%. In addition, the inhibition at 30 µM in “cells [2]” was 21.7%. Further, the inhibition at 1 µM in the data set “cells [3]” came out at 3.5%. Besides, the inhibition at 10 µM in the data set “cells [4]” is 6.7%. The inhibition at 3 µM in the data set “cells [5]” stood at 3.1%.

For `COc1cc(C(C)=O)ccc1O` [APOCYNIN], the inhibition at 72 h, 30 µM in data set [1] was less than 8.8%. For the same compound, in “cells [2]”, the inhibition at 30 µM is 20.2%. Further, the inhibition at 1 µM in “cells [3]” worked out at 16.8%. For the same compound, the inhibition at 10 µM in the data set “cells [4]” was 18.9%. The inhibition at 3 µM in “cells [5]” is 17.5%.

For the compound `COc1cc(C(=O)CCO)ccc1O`, the inhibition at 72 h, 30 µM in data set [1] is less than 8.8%. Moreover, in the data set “cells [2]”, the inhibition at 30 µM is less than 15.4%.

With `O=C(O)c1ccc(O)cc1` [PARABEN], the inhibition at 72 h, 30 µM in data set [1] was less than 8.8%. In the data set “cells [2]”, the inhibition at 30 µM is less than 15.4%.

On to `COc1cc(/C=C/C(=O)O)ccc1O` [FERULATE], for which, in data set [1], the inhibition at 72 h, 30 µM is less than 8.8%. The inhibition at 30 µM in the data set “cells [2]” was less than 15.4%.

For `COc1cc(C(=O)CO)ccc1O`, the inhibition at 72 h, 30 µM in data set [1] is less than 8.8%. Further, in the data set “cells [2]”, the inhibition at 30 µM was less than 15.4%.

For `COc1cc([C@@H]2Oc3c(O)cc([C@H]4Oc5cc(O)cc(O)c5C(=O)[C@@H]4O)cc3[C@H]2CO)ccc1O` [SILICRISTIN A], the inhibition at 72 h, 30 µM in data set [1] was less than 8.8%. Besides, the inhibition at 30 µM in the data set “cells [2]” came out at 17.4%. Also, the inhibition at 1 µM in the data set “cells [3]” is 4.1%. Further, in the data set “cells [4]”, the inhibition at 10 µM turned out to be 3.8%. Also, the inhibition at 3 µM in “cells [5]” came out at 1.3%.

With `O=C1C[C@@H](c2ccc(O)cc2)Oc2c1c(O)cc1oc3cc(O)c(O)cc3c21` [ANASTATIN B], the inhibition at 72 h, 30 µM in data set [1] is less than 8.8%. Besides, the inhibition at 30 µM in the data set “cells [2]” stood at 40.3%. Further, the inhibition at 1 µM in the data set “cells [3]” was -1.1%. Further, the inhibition at 10 µM in “cells [4]” worked out at 19.5%. In the data set “cells [5]”, the inhibition at 3 µM was found to be 10.1%.

Consider `COc1cc([C@H](O)[C@@H](CO)c2ccc(O)c(OC)c2)ccc1O` (relative stereo), for which the inhibition at 72 h, 30 µM in data set [1] is less than 8.8%. The inhibition at 30 µM in “cells [2]” was less than 15.4%.

For the compound `COc1cc(C(=O)[C@H](CO)c2ccc(O)c(OC)c2)ccc1O` [(-)-EVOFOLIN B], the inhibition at 72 h, 30 µM in data set [1] was less than 8.8%. In addition, the inhibition at 30 µM in the data set “cells [2]” is 23.5%. The inhibition at 1 µM in “cells [3]” worked out at 18.2%. Also, in “cells [4]”, the inhibition at 10 µM amounted to 16.4%. Also, the inhibition at 3 µM in “cells [5]” turned out to be 15%.

Take `COc1cc(C[C@H]2CO[C@H](c3ccc(O)c(OC)c3)[C@H]2CO)ccc1O` [LARICIRESINOL]: the inhibition at 72 h, 30 µM in data set [1] is less than 8.8%. In addition, the inhibition at 30 µM in “cells [2]” was less than 15.4%.

With `COC/C=C/c1cc(O)c2c(c1)[C@@H](CO)[C@H](c1ccc(O)c(OC)c1)O2` [HIEROCHIN A], the inhibition result in data set [6] was “inactive”. Moreover, in data set [1], the inhibition at 72 h, 30 µM was less than 8.8%. Besides, in “cells [2]”, the inhibition at 30 µM was found to be 51.8%. Also, the inhibition at 1 µM in the data set “cells [3]” was 1.9%. In “cells [4]”, the inhibition at 10 µM came to 32.5%. Further, the inhibition at 3 µM in the data set “cells [5]” came to 8%.

Source of the values: ChEMBL document CHEMBL1157646, “Melanogenesis inhibitors from the desert plant Anastatica hierochuntica in B16 melanoma cells” (Bioorg Med Chem, 2010).
